What was measured:
[1] = molecular target: T1, α3β2γ2S GABAA receptors (Homo sapiens, UniProt P34903+P47870); experiment: Two-microelectrode voltage clamp, IGABA modulation, α3β2γ2S; assay type: cell-based; settings: for nH: Hill coefficient
T1 construct: expressed in transfected cells; host or cells: Xenopus laevis oocytes injected with cRNA (pCMV cDNA templates)
Protocol: (§1) Preparation of stage V–VI oocytes from X. laevis and synthesis of capped runoff poly(A) cRNA transcripts from linearized cDNA templates (pCMV vector) was performed as previously described.[49] […] Follicle membranes from isolated oocytes were enzymatically digested with 2 mg/mL collagenase (type 1A, Sigma–Aldrich, Vienna, Austria).
(§2) Selected oocytes were injected with 10–50 nL of DEPC-treated water (diethyl pyrocarbonate, Sigma, Vienna, Austria) containing the different GABAA cRNAs at a concentration of approximately 300–3000 pg·nL^–1·subunit^–1.
(§3) To ensure expression of the γ2S subunit in the case of α1/2/3/5β2/3γ2S receptors, cRNAs were mixed in a ratio of 1:1:10. […] The amount of cRNAs was determined by means of a NanoDrop ND-1000 (Kisker-Biotech, Steinfurt, Germany).
(§4) Oocytes were stored at +18 °C in modified ND96 solution (90 mM NaCl, 1 mM CaCl2, 1 mM KCl, 1 mM MgCl2·6H2O, and 5 mM HEPES [4-(2-hydroxyethyl)-1-piperazineethanesulfonic acid], pH 7.4, all from Sigma–Aldrich, Vienna, Austria).
(§5) Chloride currents through GABAA receptors (IGABA) were measured at room temperature (+21 ± 1 °C) by means of a two-microelectrode voltage clamp technique making use of a Turbo TEC-05X amplifier (npi electronic, Tamm, Germany). IGABA were elicited at a holding potential of –70 mV. Data acquisition was carried out by means of an Axon Digidata 1322A interface using pCLAMP v.10 (Molecular Devices, Sunnyvale, CA). The modified ND96 solution was used as bath solution.
(§6) GABA and the studied derivatives were applied by means of the ScreeningTool (npi electronic, Tamm, Germany) fast perfusion system as described previously.[50] To elicit IGABA, the chamber was perfused with 120 μL of GABA- or compound-containing solution at a volume rate of 300 μL/s.[34] Care was taken to account for possible slow recovery from increasing levels of desensitization in the presence of high drug concentrations. The duration of washout periods was therefore extended from 1.5 min (<10 μM compounds) to 30 min (≥10 μM compounds). Oocytes with maximal current amplitudes >3 μA were discarded to exclude voltage clamp errors.
(§7) Stimulation of chloride currents by modulators of the GABAA receptor was measured at a GABA concentration eliciting between 3% and 7% of the maximal current amplitude (EC3–7). The GABA EC3–7 was determined for each oocyte individually. Enhancement of the chloride current was defined as (IGABA+compd/IGABA) – 1, where IGABA+compd is the current response in the presence of a given compound and IGABA is the control GABA current. IGABA-max reflects the maximal IGABA enhancement. […] Statistical significance was calculated by paired Student t-test with a confidence interval of <0.05.

[2] = molecular target: T2, α5β2γ2S GABAA receptors (Homo sapiens, UniProt P31644+P47870); experiment: Two-microelectrode voltage clamp, IGABA modulation, α5β2γ2S; assay type: cell-based; settings: for nH: Hill coefficient
T2 construct: expressed in transfected cells; host or cells: Xenopus laevis oocytes injected with cRNA (pCMV cDNA templates)
T2 sequence (P31644 32-462): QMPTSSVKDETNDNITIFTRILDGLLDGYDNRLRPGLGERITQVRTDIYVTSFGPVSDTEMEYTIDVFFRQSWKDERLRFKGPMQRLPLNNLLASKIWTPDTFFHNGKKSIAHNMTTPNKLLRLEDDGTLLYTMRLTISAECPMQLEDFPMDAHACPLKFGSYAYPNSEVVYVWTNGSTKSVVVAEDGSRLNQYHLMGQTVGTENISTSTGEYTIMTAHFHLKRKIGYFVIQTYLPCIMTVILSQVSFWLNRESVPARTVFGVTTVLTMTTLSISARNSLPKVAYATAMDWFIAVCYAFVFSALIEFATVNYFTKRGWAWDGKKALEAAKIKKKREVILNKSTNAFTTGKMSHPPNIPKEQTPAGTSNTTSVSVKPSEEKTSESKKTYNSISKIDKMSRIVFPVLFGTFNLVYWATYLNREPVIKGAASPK
T2 sequence (P47870 26-512): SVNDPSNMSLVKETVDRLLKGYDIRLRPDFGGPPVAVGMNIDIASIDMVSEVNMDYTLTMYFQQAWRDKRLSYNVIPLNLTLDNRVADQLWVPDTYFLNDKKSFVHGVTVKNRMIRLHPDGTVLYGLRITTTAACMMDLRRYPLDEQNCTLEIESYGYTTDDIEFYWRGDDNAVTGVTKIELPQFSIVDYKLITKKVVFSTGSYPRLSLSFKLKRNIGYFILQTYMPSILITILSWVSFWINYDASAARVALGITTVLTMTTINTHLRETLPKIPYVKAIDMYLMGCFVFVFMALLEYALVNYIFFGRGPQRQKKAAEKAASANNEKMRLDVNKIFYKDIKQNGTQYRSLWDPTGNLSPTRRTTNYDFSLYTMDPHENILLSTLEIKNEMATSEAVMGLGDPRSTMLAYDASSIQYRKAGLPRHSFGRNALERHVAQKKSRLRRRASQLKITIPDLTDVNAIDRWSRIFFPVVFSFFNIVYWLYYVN
T2 sequence (P18507 40-467 isoform P18507-1 partner limits assumed): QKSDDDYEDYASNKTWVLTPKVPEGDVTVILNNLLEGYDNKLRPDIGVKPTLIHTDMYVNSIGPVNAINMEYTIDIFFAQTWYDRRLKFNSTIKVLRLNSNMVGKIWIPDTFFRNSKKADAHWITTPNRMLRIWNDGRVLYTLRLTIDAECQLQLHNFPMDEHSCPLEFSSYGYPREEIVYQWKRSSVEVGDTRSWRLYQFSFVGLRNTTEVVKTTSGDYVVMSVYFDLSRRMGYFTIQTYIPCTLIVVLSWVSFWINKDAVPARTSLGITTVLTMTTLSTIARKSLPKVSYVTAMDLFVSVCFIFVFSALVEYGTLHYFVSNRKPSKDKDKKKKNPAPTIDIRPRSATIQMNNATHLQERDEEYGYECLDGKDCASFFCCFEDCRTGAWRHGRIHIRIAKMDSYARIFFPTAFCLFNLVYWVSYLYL
Protocol: as §1, §2, §3, §4, §5, §6, §7

[3] = molecular target: T3, α1β2γ2S GABAA receptors (Homo sapiens, UniProt P14867+P47870); experiment: Two-microelectrode voltage clamp, IGABA modulation, α1β2γ2S; assay type: cell-based; settings: for nH: Hill coefficient of concentration–response curve; for EC50: IGABA enhancement, GABA EC3–7, Xenopus oocytes
T3 construct: expressed in transfected cells; host or cells: Xenopus laevis oocytes injected with cRNA (pCMV cDNA templates)
T3 sequence (P14867 28-456): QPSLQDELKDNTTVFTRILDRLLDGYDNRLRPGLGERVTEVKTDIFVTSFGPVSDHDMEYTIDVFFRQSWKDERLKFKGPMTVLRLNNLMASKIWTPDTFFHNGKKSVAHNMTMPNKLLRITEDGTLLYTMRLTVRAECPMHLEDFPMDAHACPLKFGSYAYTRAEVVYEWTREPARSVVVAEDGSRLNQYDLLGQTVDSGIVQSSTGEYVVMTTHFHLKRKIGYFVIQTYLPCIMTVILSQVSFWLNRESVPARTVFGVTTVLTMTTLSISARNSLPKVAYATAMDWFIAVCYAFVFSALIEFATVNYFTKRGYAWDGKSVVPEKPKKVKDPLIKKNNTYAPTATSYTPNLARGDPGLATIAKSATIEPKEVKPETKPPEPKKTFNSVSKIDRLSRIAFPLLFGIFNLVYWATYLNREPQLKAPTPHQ
T3 sequence (P47870 26-512): as the sequence (P47870 26-512) above
T3 sequence (P18507 40-467 isoform P18507-1 partner limits assumed): as the sequence (P18507 40-467 isoform P18507-1 partner limits assumed) above
Protocol: as §1, §2, §3, §4, §5, §6
as §7, with “enhancement. Concentration–response curves were generated and the data were fitted by nonlinear regression analysis using Origin Software (OriginLab Corp.). Data were fitted to the equation 1/(1 + (EC50/[compound])^nH), where nH is the Hill coefficient.” for “enhancement.”

[4] = molecular target: T4, α2β2γ2S GABAA receptors (Homo sapiens, UniProt P47869+P47870); experiment: Two-microelectrode voltage clamp, IGABA modulation, α2β2γ2S; assay type: cell-based; settings: for nH: Hill coefficient
T4 construct: expressed in transfected cells; host or cells: Xenopus laevis oocytes injected with cRNA (pCMV cDNA templates)
T4 sequence (P47869 29-451): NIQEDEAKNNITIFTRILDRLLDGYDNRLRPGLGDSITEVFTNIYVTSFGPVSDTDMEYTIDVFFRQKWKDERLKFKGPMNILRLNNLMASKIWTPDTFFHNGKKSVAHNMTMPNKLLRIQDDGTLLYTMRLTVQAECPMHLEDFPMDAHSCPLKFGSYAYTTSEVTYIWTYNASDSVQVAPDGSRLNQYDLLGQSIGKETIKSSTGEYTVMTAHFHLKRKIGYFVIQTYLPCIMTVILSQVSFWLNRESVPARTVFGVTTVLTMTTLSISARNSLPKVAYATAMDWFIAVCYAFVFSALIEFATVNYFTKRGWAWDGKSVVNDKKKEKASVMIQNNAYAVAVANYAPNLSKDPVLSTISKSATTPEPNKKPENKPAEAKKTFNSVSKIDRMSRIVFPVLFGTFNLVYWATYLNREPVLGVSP
T4 sequence (P47870 26-512): as the sequence (P47870 26-512) above
T4 sequence (P18507 40-467 isoform P18507-1 partner limits assumed): as the sequence (P18507 40-467 isoform P18507-1 partner limits assumed) above
Protocol: as §1, §2, §3, §4, §5, §6, §7

[5] = molecular target: T5, TRPV1 (Homo sapiens, UniProt Q8NER1); experiment: TRPV1 activation in Xenopus oocytes; assay type: cell-based; settings: 100 μM, data not shown
T5 construct: expressed in transfected cells; host or cells: Xenopus laevis oocytes
T5 sequence (Q8NER1 whole entry, species assumed): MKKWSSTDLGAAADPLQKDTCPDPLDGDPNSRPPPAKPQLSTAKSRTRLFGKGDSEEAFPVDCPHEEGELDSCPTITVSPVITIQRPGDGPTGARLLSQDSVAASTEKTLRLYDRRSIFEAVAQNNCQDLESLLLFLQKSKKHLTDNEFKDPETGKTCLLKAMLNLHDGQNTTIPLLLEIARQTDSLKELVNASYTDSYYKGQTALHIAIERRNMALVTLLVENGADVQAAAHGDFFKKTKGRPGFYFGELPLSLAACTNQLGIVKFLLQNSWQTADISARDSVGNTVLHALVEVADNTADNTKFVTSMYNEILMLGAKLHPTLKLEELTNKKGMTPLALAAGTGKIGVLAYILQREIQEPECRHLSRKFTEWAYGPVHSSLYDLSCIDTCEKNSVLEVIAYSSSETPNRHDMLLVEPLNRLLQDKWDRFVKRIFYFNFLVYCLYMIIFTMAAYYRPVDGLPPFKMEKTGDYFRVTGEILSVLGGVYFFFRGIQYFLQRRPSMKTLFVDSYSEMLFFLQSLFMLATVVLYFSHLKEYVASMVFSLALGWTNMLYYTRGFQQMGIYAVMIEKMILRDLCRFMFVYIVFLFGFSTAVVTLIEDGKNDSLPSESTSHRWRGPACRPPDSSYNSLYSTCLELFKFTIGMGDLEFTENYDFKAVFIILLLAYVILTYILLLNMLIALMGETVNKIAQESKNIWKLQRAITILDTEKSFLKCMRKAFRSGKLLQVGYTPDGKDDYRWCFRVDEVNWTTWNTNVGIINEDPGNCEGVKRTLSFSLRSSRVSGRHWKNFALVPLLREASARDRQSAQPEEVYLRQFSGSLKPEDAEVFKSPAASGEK
Text: (for review see ref ([47])). In order to rule out potential activation of TRPV1, selected compounds were studied in X. laevis oocytes for interaction with TRPV1 prior to in vivo characterization. […] Both compounds were further characterized concerning their anxiolytic activity (see also ref ([34])).

[6] = system: male C57BL/6N mice; experiment: Open field test; assay type: in vivo; settings: ip, total ambulation
Protocol: (§8) Male mice (C57BL/6N) were obtained from Charles River Laboratories (Sulzfeld, Germany). For maintenance, mice were group-housed (maximum five mice per type IIL cage) with free access to food and water. At least 24 h before the commencement of experiments, mice were transferred to the testing facility, where they were given free access to food and water. The temperature in the maintenance and testing facilities was 23 ± 1 °C; the humidity was 40–60%; a 12 h light–dark cycle was in operation (lights on from 07:00 to 19:00). Only male mice aged 3–6 months were tested.
(§9) Compounds were applied by intraperitoneal (ip) injection 30 min before each test. Testing solutions were prepared in a solvent composed of 0.9% NaCl solution with 10% dimethyl sulfoxide (DMSO) and 3% Tween 80. […] All doses are indicated as milligrams per kilogram of body weight of the animal.
Ambulation was tested over 10 min in a 50 × 50 cm flexfield box equipped with infrared rearing detection. Illumination was set to 150 Lux. The animals’ explorative behavior was analyzed by use of the ActiMot 2 equipment and software (TSE-systems, Bad Homburg, Germany). Arenas were subdivided into border (up to 8 cm from wall), center (20 × 20 cm, 16% of total area), and intermediate area according to the recommendations of EMPRESS (European Mouse Phenotyping Resource of Standardised Screens; http://empress.har.mrc.ac.uk).

[7] = molecular target: T6, α4β2γ2S GABAA receptors (Homo sapiens, UniProt P47870+P48169); experiment: Two-microelectrode voltage clamp, IGABA modulation, α4β2γ2S; assay type: cell-based; settings: for nH: Hill coefficient
T6 construct: expressed in transfected cells; host or cells: Xenopus laevis oocytes injected with cRNA (pCMV cDNA templates)
T6 sequence (P48169 36-554): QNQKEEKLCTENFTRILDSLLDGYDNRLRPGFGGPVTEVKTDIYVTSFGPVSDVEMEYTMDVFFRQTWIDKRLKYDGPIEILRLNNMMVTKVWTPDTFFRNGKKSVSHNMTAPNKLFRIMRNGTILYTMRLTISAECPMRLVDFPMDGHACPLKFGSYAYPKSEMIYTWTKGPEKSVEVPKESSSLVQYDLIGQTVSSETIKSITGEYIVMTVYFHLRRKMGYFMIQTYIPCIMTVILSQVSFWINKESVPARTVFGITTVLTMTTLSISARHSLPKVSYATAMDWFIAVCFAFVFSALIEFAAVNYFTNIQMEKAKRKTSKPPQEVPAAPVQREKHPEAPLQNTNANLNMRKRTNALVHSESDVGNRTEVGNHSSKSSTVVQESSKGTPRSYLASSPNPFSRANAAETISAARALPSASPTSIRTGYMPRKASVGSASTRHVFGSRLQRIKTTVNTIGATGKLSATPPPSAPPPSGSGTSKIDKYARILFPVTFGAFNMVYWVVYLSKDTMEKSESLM
T6 sequence (P47870 26-512): as the sequence (P47870 26-512) above
T6 sequence (P18507 40-467 isoform P18507-1 partner limits assumed): as the sequence (P18507 40-467 isoform P18507-1 partner limits assumed) above
Protocol: as §1, §2, §3, §4, §5, §6, §7

[8] = system: male C57BL/6N mice; experiment: Elevated plus maze test; assay type: in vivo; settings: for time spent in open arms (OA) as percentage of total time: 30 min after application, EPM; for effect in the EPM test: ip, 30 min before test
Protocol: as §8, §9
The animals’ behavior was tested over 5 min on an elevated plus maze 1 m above ground consisting of two closed and two open arms, each 50 × 5 cm in size. The test instrument was built from gray PVC; the height of closed arm walls was 20 cm. Illumination was set to 180 Lux. Animals were placed in the center, facing an open arm. Analysis of open and closed arm entries and time on open arm was automatically done with Video-Mot 2 equipment and software (TSE Systems, Bad Homburg, Germany).[34]

T1 sequence (P34903 29-492): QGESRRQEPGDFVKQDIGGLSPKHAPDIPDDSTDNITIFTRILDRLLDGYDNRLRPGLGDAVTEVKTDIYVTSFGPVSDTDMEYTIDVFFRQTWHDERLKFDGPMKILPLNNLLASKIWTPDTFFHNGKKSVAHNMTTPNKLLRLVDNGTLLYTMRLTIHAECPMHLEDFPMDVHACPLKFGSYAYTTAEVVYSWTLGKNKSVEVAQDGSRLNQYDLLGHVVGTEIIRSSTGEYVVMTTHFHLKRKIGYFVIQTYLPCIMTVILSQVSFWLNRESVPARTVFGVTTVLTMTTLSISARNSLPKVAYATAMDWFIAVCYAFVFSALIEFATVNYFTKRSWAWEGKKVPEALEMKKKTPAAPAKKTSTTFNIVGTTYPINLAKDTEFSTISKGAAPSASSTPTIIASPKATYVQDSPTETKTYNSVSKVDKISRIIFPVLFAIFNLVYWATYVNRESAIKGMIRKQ
T1 sequence (P47870 26-512): as the sequence (P47870 26-512) above
T1 sequence (P18507 40-467 isoform P18507-1 partner limits assumed): as the sequence (P18507 40-467 isoform P18507-1 partner limits assumed) above

Compound | EC50 [1] [µM] | nH [1] | EC50 [2] [µM] | nH [2] | nH [3] | EC50 [3] [µM] | EC50 [4] [µM] | nH [4] | activation of TRPV1 [5] | sedation in the OF test [6] | EC50 [7] [µM] | nH [7] | time spent in open arms (OA) as percentage of total time ([8]; 0.3 mg/kg ip) | effect in the EPM test [8] | time spent in open arms (OA) as percentage of total time ([8]; 3 mg/kg ip)
CCCN(CCC)C(=O)/C=C/C=C/c1ccc2c(c1)OCO2 [Compound 23, (2E,4E)-5-(1,3-benzodioxol-5-yl)-N,N-dipropyl-2,4-pentadienamide] | 36.6 ± 7.2 | 1.9 ± 0.3 | 61.9 ± 10.4 | 1.4 ± 0.1 | 3.1 ± 0.8 | 51.7 ± 9.5 | 26.4 ± 6.6 | 1.9 ± 0.4 | did not activate TRPV1 | little sedation | 34.7 ± 3.8 | 1.7 ± 0.1 | 45.6% ± 3.2% | anxiolytic effects | –
CCCCN(CCCC)C(=O)/C=C/C=C/c1ccc2c(c1)OCO2 [Compound 25, (2E,4E)-5-(1,3-Benzodioxol-5-yl)-N,N-dibutyl-2,4-pentadienamide] | 16 ± 2.7 | 1.8 ± 0.1 | 17.2 ± 1.4 | 1.7 ± 0.2 | 1.8 ± 0.1 | 13.8 ± 1.8 | 14.8 ± 1.9 | 2.2 ± 0.3 | did not activate TRPV1 | little sedation | 56.7 ± 21 | 1.3 ± 0.3 | 39.8% ± 4.1% | anxiolytic effects | 43.9% ± 4.3%
